Measured values published in patent US3944580A, “7-[2-(Dithiocarboxylamino)alkanamido]-cephalosporanic acid derivatives” (American Home Products Corporation, priority 1974, dated 1976).
Converted amounts (≈) assume the structure as drawn. Read-outs that look alike come from different tables or passages of the source.

Tests used:
[1] = test system: escherichia coli (ES CO) 920; test: in vivo curative dose in infected mice, ES CO 920; settings: subcutaneous at zero time and 6 hours after i.p. infection, 14 days
Procedure: (§1) The in vivo activity of the antibacterial agents of this invention was established by subcutaneously administering a dose of the compound being tested at zero time and 6 hours after infection to a randomized group of mice which had been infected with a specific infective agent, such as Escherichia coli, etc., via intraperitoneal injection of 0.5 milliliters of the infective agent in 5 per cent gastric mucin. The mice were then observed for 14 days and any deaths were recorded daily. The curative dose (CD50) was then reported in terms of the milligrams per mouse needed for […] of the infective agent.
(§2) Es co -- escherichia coli

[2] = test system: neisseria catarrhalis (NE CA) 8193; test: agar serial dilution MIC, NE CA 8193; assay type: cell-based; settings: NE CA strain 8193
Description: (§3) The compounds of this invention are antibacterials effective against gram-positive and gram-negative test organisms as well as penicillin resistant staphylococcus at an inhibitory concentration at or below 250 micrograms per milliliter using the well-known and scientifically accepted agar serial dilution technique. […] Thus, the compounds of this invention are useful in the fields of comparative pharmacology and microbiology and may be used in the treatment of bovine mastitis, as growth promotors in animals and for the treatment of infections amenable to treatment with penicillins and cephalosporins.
(§4) The following examples are presented for purposes of illustration and should not be construed as limitations upon the true scope of this invention.
Ne ca -- neisseria catarrhalis

[3] = test system: staphylococcus aureus (ST AU) Smith; test: in vivo curative dose in infected mice, ST AU Smith; settings: subcutaneous at zero time and 6 hours after i.p. infection, 14 days, mg per mouse, average of several tests
Procedure: as §1
(§5) St au -- staphylococcus aureus

[4] = test system: klebsiella pneumoniae (KL PN) 10031; test: agar serial dilution MIC, KL PN 10031; assay type: cell-based; settings: KL PN strain 10031
Description: as §3, §4
Kl pn -- klebsiella pneumoniae

[5] = test system: staphylococcus aureus (ST AU) Smith; test: agar serial dilution MIC, ST AU Smith; assay type: cell-based
Description: as §3, §4, §5

[6] = test system: escherichia coli (ES CO) 9637; test: agar serial dilution MIC, ES CO 9637; assay type: cell-based; settings: ES CO strain 9637
Description: as §3, §4, §2

[7] = test system: proteus vulgaris (PR VU) 6896; test: agar serial dilution MIC, PR VU 6896; assay type: cell-based; settings: PR VU strain 6896
Description: as §3, §4
Pr vu -- proteus vulgaris

[8] = test system: staphylococcus aureus (ST AU) 53-180; test: agar serial dilution MIC, ST AU 53-180; assay type: cell-based
Description: as §3, §4, §5

[9] = test system: escherichia intermedia (ES IN) 65-1; test: agar serial dilution MIC, ES IN 65-1; assay type: cell-based; settings: Citrobacter intermedius, ES IN strain 65-1
Description: as §3, §4
Es in -- escherichia intermedia

[10] = test system: bacillus subtilis (BA SU) 663; test: agar serial dilution MIC, BA SU 663; assay type: cell-based; settings: BA SU strain 663
Description: as §3, §4
Ba su -- bacillus subtilis

[11] = test system: salmonella typhosa (SA TY) SAD-12; test: in vivo curative dose in infected mice, SA TY SAD-12; settings: subcutaneous at zero time and 6 hours after i.p. infection, 14 days, mg per mouse, average of several tests
Procedure: as §1
Sa ty -- salmonella typhosa

[12] = test system: staphylococcus aureus (ST AU) CHP; test: agar serial dilution MIC, ST AU CHP; assay type: cell-based; settings: ST AU strain CHP
Description: as §3, §4, §5

[13] = test system: proteus mirablis (PR MI) PR-3; test: in vivo curative dose in infected mice, PR MI PR-3; settings: subcutaneous at zero time and 6 hours after i.p. infection, 14 days, mg per mouse, average of several tests
Procedure: as §1
Pr mi -- proteus mirablis

[14] = test system: salmonella paratyphi (SA PA) 11737; test: agar serial dilution MIC, SA PA 11737; assay type: cell-based; settings: Salmonella enterica
Description: as §3, §4
Sa pa -- salmonella paratyphi

[15] = test system: bordetella brochiseptica (BO BR) 4617; test: agar serial dilution MIC, BO BR 4617; assay type: cell-based; settings: BO BR strain 4617
Description: as §3, §4
Bo br -- bordetella brochiseptica

[16] = test system: staphylococcus aureus (ST AU) 6538P; test: agar serial dilution MIC, ST AU 6538P; assay type: cell-based
Description: as §3, §4, §5

[17] = test system: shigella sonnei (SH SO) SH-1; test: in vivo curative dose in infected mice, SH SO SH-1; settings: subcutaneous at zero time and 6 hours after i.p. infection, 14 days, mg per mouse, average of several tests
Procedure: as §1

EN AE 13048 = test: agar serial dilution MIC, EN AE 13048; assay type: cell-based; settings: EN AE strain 13048
Description: as §3, §4

[18] = agar serial dilution, ST AU strain Smith, read-out: MIC
[19] = agar serial dilution, ST AU strain 53-180, read-out: MIC
[20] = agar serial dilution, ST AU strain 6538P, read-out: MIC

Row | Structure (SMILES) | MIC [2] [µg/mL] | MIC [4] [µg/mL] | MIC [5, 18] [µg/mL] | MIC [6] [µg/mL] | MIC [7] [µg/mL] | MIC [8, 19] [µg/mL] | MIC [9] [µg/mL] | MIC [10] [µg/mL] | MIC [12] [µg/mL] | MIC [14] [µg/mL] | MIC [15] [µg/mL] | MIC [16, 20] [µg/mL] | also measured
1 | CC(=O)OCC1=C(C(=O)O)N2C(=O)C(NC(=O)CNC(=S)SCC(=O)O)C2SC1 (stereo not drawn) [Example 1, 7-[2-(Dithiocarboxyamino)acetamido]cephalosporanic acid N-carboxymethyl ester] | 250 (≈ 539 µM) | 31.3 (≈ 67.5 µM) | 0.976 (≈ 2.11 µM) | 62.5 (≈ 135 µM) | 15.6 (≈ 33.7 µM) | 3.9 (≈ 8.41 µM) | 250 (≈ 539 µM) | 0.244 (≈ 0.526 µM) | 3.9 (≈ 8.41 µM) | 7.81 (≈ 16.8 µM) | 15.6 (≈ 33.7 µM) | 0.976 (≈ 2.11 µM) | in vivo curative dose (CD50) ([1]; mg per mouse, average of several tests, ES CO 920): 4.48 mg; in vivo curative dose (CD50) [3]: 4.37 mg; in vivo curative dose (CD50) [11]: 1.41 mg; in vivo curative dose (CD50) [13]: 1.96 mg; in vivo curative dose (CD50) [17]: 2.66 mg
2 | CC(=O)OCC1=C(C(=O)O)N2C(=O)C(NC(=O)CCNC(=S)SCC(=O)O)C2SC1 (stereo not drawn) [Example 2, 7-[3-(Dithiocarboxyamino)propionamido]cephalosporanic acid N-carboxymethyl ester] | 125 (≈ 262 µM) | 31.3 (≈ 65.5 µM) |  | 15.6 (≈ 32.7 µM) | 1.95 (≈ 4.08 µM) | 3.9 (≈ 8.17 µM) |  | 0.488 (≈ 1.02 µM) | 3.9 (≈ 8.17 µM) | 0.976 (≈ 2.04 µM) | 7.81 (≈ 16.4 µM) |  | MIC [5]: 0.976 µg/mL (≈ 2.04 µM); MIC [16]: 0.976 µg/mL (≈ 2.04 µM)
3 | CC(=O)OCC1=C(C(=O)O)N2C(=O)C(NC(=O)C(NC(=S)SCC(=O)O)c3ccccc3)C2SC1 (stereo not drawn) [Example 3, 7-[2-(Dithiocarboxyamino)phenylacetamido]cephalosporanic acid N-carboxymethyl ester] | 250 (≈ 463 µM) | 31.3 (≈ 58 µM) | 7.81 (≈ 14.5 µM) | 31.3 (≈ 58 µM) | 7.81 (≈ 14.5 µM) |  | 250 (≈ 463 µM) | 3.9 (≈ 7.23 µM) | 31.3 (≈ 58 µM) | 15.6 (≈ 28.9 µM) | 125 (≈ 232 µM) | 7.81 (≈ 14.5 µM) | CD50 ([1]; ES CO-920): 6.0 milligrams/mouse; MIC (EN AE 13048): 250 µg/mL (≈ 463 µM); MIC [8]: 15.6 µg/mL (≈ 28.9 µM)
